Here are results for two compounds from patent publication US5110935A, “New compounds which are active against the tissue forms of malaria and method of preparation” (Ire-Celltarg, S.A., priority 1988, dated 1992).

Data set [1] deals with Plasmodium berghei. Put plainly: Causal prophylactic activity on OF1 mice infected with Plasmodium berghei. Conditions: for ED50 / ED100 / minimal effective dose: Plasmodium berghei, iv, 3 h; for ED50 / ED100 / minimal effective dose / CPD50, causal prophylactic dose curing 50% of the infected and treated animals / ED100, totally curative dose: single i.v. three hours after sporozoites, mg PQ diphosphate equivalent/kg; for ED50: read-out: CPD50, causal prophylactic dose curing 50% of the infected and treated animals; for ED100: read-out: ED100, totally curative dose; for minimal effective dose: read-out: Minimal effective dose (MED); for Activity relative to PQ, fold as active: model of malaria in mice; for CPD50, fold lower than for PQ: mouse, in vivo; for PQ index: ratio CPD50 of PQ/CPD50 of the compound. It counts as in vivo, P. berghei (ANKA), in Swiss OF1 mice. The method, then: Primaquine and its derivatives are tested in the model of malaria in rodents employing the infection of mice with Plasmodium berghei, the sporozoites originating from infected Anopheles stephensi mosquitoes. This model, developed by Most H., Herman R. & Schoenfeld C. (1967), Am. J. Trop. med. Hyg. 16, 572-575, enables the casual prophylatic (tissue schizonticidal) activity of new therapeutic compounds to be determined.
The procedure used is that derived from Most H. & Montuori W.A. (1975), Am. J. Trop. Med. Hyg. 24, 179-189. It involves the system P. berghei (ANKA)/Anopheles stephensi/Swiss OF1 mice. The ANKA strain of P. b. berghei is maintained cyclically on Anopheles stephensi. The Swiss OF1 strain mouse is especially sensitive to P. b. berghei, which produces an invariably fatal infection.
The legs, wings and abdomen are removed from female mosquitoes (80 to 100 individuals per preparation) and the latter are then homogenized at 4° C. in MEM medium (GIBCO) containing 10% of fetal calf serum using a glass Potter. The sporozoite suspension is then purified from the mosquito debris by two successive centrifugations (2 min at 50 g and 5 min at 200 g) and the collected supernatant is stored at 4° C. After counting in a Petroff-Hausser chamber, the number of parasites is adjusted by dilution with the same cold medium to a density of 2×10^5 sporozoites/ml.
The causal prophylactic activity of the compounds, that is to say the dose enabling 50% of the infected animals to be cured (CPD50) is obtained by analysis of the logits of the response (expressed as a % LTS) as a function of the dose (mg PQ/kg).
A volume of 0.5 ml of the suspension containing 10^5 sporozoites is injected i.v. into female Swiss OF1 mice weighing 20 to 25 g, used for the therapeutic tests. 1.2. Chemotherapeutic treatments
Groups of 20 to 25 mice, infected as described above, are treated with a single intravenous injection of primaquine diphosphate (PQ) or of its two derivatives in hydrochloride form, three hours after inoculation of the sporozoites. The volume injected is adjusted according to the weight of the mouse, on the basis of 0.25 ml for a weight of 25 g. The compounds are diluted in phosphatebuffered saline (PBS), pH 7.0, and the pH is adjusted to 7.0. Infected but untreated mice (5 per group), receive the buffer alone and serve to monitor the infectivity of the sporozoites.
The experimental mice are kept for a period of 50 days. The development of the parasitemia is followed by daily examination of blood smears stained for 60 min with 5% Giemsa in Sorensen buffer at pH 7.2, from day 5 up to day 15. The number of infected animals can thus be determined.
The animals infected using P. berchei sporozoites are treated three hours later with a single i.v. injection of the compounds. This test enables the casual prophylactic activity of the compounds, that is the dose enabling 50% of the infected animals to be cured (CPD50), to be defined. The dose is always expressed as mg of PQ diphosphate per kg.
The animals infected using P. berghei sporozoites are treated three hours later with a single i.v. injection of the compounds. This test enables the casual prophylactic activity of the compounds, that is the dose enabling 50% of the infected animals to be cured (CPD50), to be defined. The dose is always expressed as mg of PQ diphosphate per kg.

The next data set has as its system female Swiss OF1 mice. Put plainly: Acute toxicity in mice after a single i.v. administration. In kind it is in vivo. Conditions: for Fold less toxic than PQ: mice, i.v.; for LD50 / Maximum tolerated dose (MTD): single i.v., mg PQ diphosphate equivalent/kg; for Maximum tolerated dose (MTD): weight loss not exceeding 5% during 5 days. The method, then: (§1) The acute toxicity in terms of a single administered dose is determined on female Swiss OF1 mice weighing 22 to 25 g. A series of dilutions of each compound is injected intravenously into groups of 10 mice (0.1 ml per 10 g of weight).
(§2) The lethal dose for 50% of mice (LD50) is determined by linear regression of the logits of the percentage of surviving animals as a function of the logarithm of the dose injected (in mg PQ diphosphate equivalent/kg) (Logit Weighted Transformation, Berkson J., 1953; J. Am. Stat. Assoc. 48, 565-599).
(§3) ^a : The products are administered i.v. to groups of 10 female Swiss
(§4) ^b : Maximum tolerated dose (MTD), defined as the highest dose
(§5) The acute toxicity in terms of a single administered dose is determined under the same conditions and according the protocol of Example 3.

Assay in data set [2]: as above
In kind it is in vivo. Conditions: mouse, in vivo, iv, single i.v., mg PQ diphosphate equivalent/kg; for MTD: weight loss not exceeding 5% during 5 days, read-out: Maximum tolerated dose (MTD). The method, then:
as §1, §2, §3, §4, §5

Data set [3] concerns Plasmodium berghei. As to the kind of experiment: Therapeutic index in mice. The note with it: mice, i.v. In kind it is in vivo, P. berghei. From the text: The therapeutic index is defined as the ratio of the toxicity, expressed as LD50, to the therapeutic activity, expressed as CPD50, in mice.
^b : The therapeutic index (TI) is the ratio of LD50 to […]

SMILES strings stand for the structures. Where “and” joins values, the source holds several entries; their conditions need not be identical. Equal values may be shown once.

For `COc1cc(NC(C)CCCNC(=O)[C@@H](N)CC(=O)O)c2ncccc2c1` (stereo partly drawn) [ASP-PQ, N-(α-L-aspartyl)-PQ], in the data set on Plasmodium berghei [1], the ED50 was found to be 11.6 mg/kg; the ED100 stood at 31 mg/kg; the minimal effective dose was determined as 4.4 mg/kg; the “Activity relative to PQ, fold as active” value is given as 1.6 -fold. In addition, in the data set on Plasmodium berghei [1], the “CPD50, fold lower than for PQ” value was 1.6 -fold; the PQ index is 1.62; the “CPD50, causal prophylactic dose curing 50% of the infected and treated animals” value is 11.6 (0.9) mg/kg; the “ED100, totally curative dose” value was 31.1 (9.2) mg/kg. Also, in the data set with female Swiss OF1 mice, the “Fold less toxic than PQ” value is recorded as “at least 5 -fold”; the LD50 was 165.5 (5.4) mg/kg and 165 (5.4) mg/kg; the “Maximum tolerated dose (MTD)” value is on record as 107.2 (14.2) mg/kg. Further, in data set [2], the LD50 was 165 mg/kg and the maximum tolerated dose (MTD) was found to be 107 mg/kg. For the same compound, in the data set on Plasmodium berghei [3], the “Therapeutic index, fold higher than that of PQ” value was “at least 8 -fold”.
Turning to `COc1cc(NC(C)CCCNC(=O)C[C@H](N)C(=O)O)c2ncccc2c1` (stereo partly drawn) [βASP-PQ, N-(β-L-aspartyl)-PQ], in the data set with Plasmodium berghei [1], the ED50 worked out at 11.2 mg/kg; the ED100 is 31 mg/kg; the minimal effective dose is 4.1 mg/kg; the “Activity relative to PQ, fold as active” value is listed as “at least 1.6 -fold”. In the data set on Plasmodium berghei [1], the “CPD50, fold lower than for PQ” value is recorded as 1.6 -fold; the PQ index worked out at 1.68; the “CPD50, causal prophylactic dose curing 50% of the infected and treated animals” value is 11.2 (0.7) mg/kg; the “ED100, totally curative dose” value is on record as 30.6 (5.7) mg/kg. In the data set on female Swiss OF1 mice, the “Fold less toxic than PQ” value is “at least 5 -fold”; the LD50 is 164.4 (6.2) mg/kg and 164 (6.2) mg/kg; the “Maximum tolerated dose (MTD)” value is on record as 109.1 (13.1) mg/kg. Further, in data set [2], the LD50 worked out at 164 mg/kg and the MTD was 109 mg/kg. The “Therapeutic index, fold higher than that of PQ” value in the data set with Plasmodium berghei [3] was 8 -fold.
